Experimental findings from ChEMBL document CHEMBL2417501, “Synthesis of 4-aminoquinoline-pyrimidine hybrids as potent antimalarials and their mode of action studies” (Eur J Med Chem, 2013) are described below.

One may read the EC50 as the concentration that produces a half-maximal response.

For the assay, the system named is Vaccinia virus. Put plainly: Antiviral activity against Vaccinia virus infected in human HEL cells assessed as reduction of virus-induced cytopathogenicity. The class given is functional, organism-based. To be noted: Orthopoxvirus vaccinia. A general note: Cytopathic effects are the visible damage that an infection or toxin causes in cultured cells.
Consider `Nc1nc2c(ncn2COC(CO)CO)c(=O)[nH]1` [GANCICLOVIR], for which the EC50 was over 100 µM.

For `CCOC(=O)c1c(C)nc(NCCCCNc2ccnc3cc(Cl)ccc23)nc1-c1ccc(Cl)cc1`, the EC50 is over 20 µM.

Consider `CCOC(=O)c1c(C)nc(OCCCNc2ccnc3cc(Cl)ccc23)nc1-c1ccccc1`, for which the EC50 was over 100 µM.

Regarding `COC(=O)c1c(C)nc(NCCCNc2ccnc3cc(Cl)ccc23)nc1-c1ccccc1`, the EC50 was over 20 µM.

On to `Nc1ccn(C[C@@H](CO)OCP(=O)(O)O)c(=O)n1` [CIDOFOVIR], for which the concentration for a half-maximal effect (EC50) was found to be 17 µM.

With `Nc1nc2c(ncn2COCCO)c(=O)[nH]1` [ACYCLOVIR], the EC50 was over 250 µM.

On to `CCOC(=O)c1c(C)nc(NCCCCNc2ccnc3cc(Cl)ccc23)nc1-c1ccccc1[N+](=O)[O-]`, for which the EC50 was over 4 µM.

As for `O=c1[nH]c(=O)n([C@H]2C[C@H](O)[C@@H](CO)O2)cc1/C=C/Br` [BRIVUDINE], the EC50 amounted to 5 µM.

Turning to `CCOC(=O)c1cnc(NCCCCNc2ccnc3cc(Cl)ccc23)nc1C`, the EC50 is over 100 µM.

Take `CCOC(=O)c1c(C)nc(NCCCCNc2ccnc3cc(Cl)ccc23)nc1-c1ccc(F)cc1`: the EC50 was over 100 µM.

For the molecule `Cc1nc(NCCCCNc2ccnc3cc(Cl)ccc23)nc(-c2ccccc2)c1C(=O)OC(C)C`, the EC50 is over 4 µM.
